# Paper PMC12150283, “Synthesis of new Ag(I) and Cd(II) hydrozanomide-based complexes with antibacterial and anticancer properties” (RSC Advances, 2025)
# What was measured:
# B. subtilis ATCC 6633 = experiment: Diffusion-well method, inhibition zones; assay type: cell-based, Bacillus subtilis; details: 500 µg/mL, wells 10 mm
# Outline: (§1)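 MHA agar-well diffusion; inoculum 1–2 × 10^8 CFU mL^−1 from 24 h cultures; 10 mm wells; compound 10–500 μg mL^−1 in DMSO; 18 h, 30 °C (Bacillus) / 37 °C (others); zones read in mm.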
# [1] = Time-dependent UV-vis solution stability in DMSO; assay type: physicochemical; details: 0 min to 48 h, room temperature
# From the text: The stability of metal complexes is a crucial property that provides insight into their interactions with biological molecules, as it directly impacts their reactivity, bioavailability, and effectiveness in therapeutic applications. Additionally, the solubility of these complexes in dimethyl sulfoxide (DMSO) is of considerable importance, as solubility data are essential for optimizing storage conditions and ensuring compatibility with biological assays.[39] DMSO, a widely used solvent in drug discovery, serves as a medium that supports the stability and bioavailability of complexes under assay conditions, which is critical for maintaining the integrity of analytical protocols and enabling accurate assessments of biological activity. For the obtained complexes, the time-dependent UV-vis investigations in DMSO (Fig. 5 and S9 ^†) were carried out from 0 min to 48 h (0 min, 30 min, 1 h, 2 h, 3 h, 24 h, 48 h).
# The sample solutions (50 μL (1.0 × 10^−3 M)) of the complexes were prepared in DMSO (Sigma Aldrich, ≥99.9%). The absorption spectra of the complexes were measured with increasing time (0 min, 30 min, 60 min, 2 h, 3 h, 24 h, 48 h) at room temperature. All measurements were performed on the Shimadzu UV-2401PC.
# E. faecalis ATCC 29212 = experiment: Diffusion-well method, inhibition zones; assay type: cell-based, Enterococcus faecalis; details: 500 µg/mL, wells 10 mm
# Outline: as §1
# [2] = tested on: Listeria monocytogenes ATCC 19115; experiment: MIC determination; assay type: cell-based; details: Listeria monocytogenes ATCC 19115; 18 h
# Outline: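 Agar well-diffusion on Mueller–Hinton agar, inoculum 1.5 × 10^8 CFU mL^−1 (McFarland 0.5), per EUCAST. Compounds in DMSO were added to 10 mm wells, and plates were incubated 18 h at 30 °C (Bacillus subtilis) or 37 °C (others). MIC (μg mL^−1) = lowest concentration preventing growth; three independent replicates.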
# E. coli ATCC 10530 = experiment: Diffusion-well method, inhibition zones; assay type: cell-based, Escherichia coli; details: 500 µg/mL, wells 10 mm
# Outline: as §1
# [3] = tested on: L. monocytogenes ATCC 19115; experiment: Diffusion-well method, inhibition zones; assay type: cell-based, Listeria monocytogenes; details: 500 µg/mL, wells 10 mm
# Outline: as §1
# glioblastoma U87 cells = experiment: MTT cell viability assay; assay type: cell-based, human; details: 48 hours of incubation
# Outline: (§2)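 Cells seeded at 2 × 10^4/well, left 24 h, then treated with compound over 1–50 μM for 48 h. Viability was read by MTT colorimetry in triplicate, and IC50 was taken as the concentration lowering viability by 50%.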
# [4] = tested on: glioblastoma LN-229 cells; experiment: MTT cell viability assay; assay type: cell-based, human; details: 48 hours of incubation
# Outline: as §2
# [5] = tested on: normal skin fibroblast BJ cells; experiment: MTT cell viability assay; assay type: cell-based, human; details: BJ normal fibroblasts; 48 hours of incubation
# Outline: as §2
# S. aureus ATCC 6538 = experiment: Diffusion-well method, inhibition zones; assay type: cell-based, Staphylococcus aureus; details: 500 µg/mL, wells 10 mm
# Outline: as §1
# S. aureus ATCC 25923 = experiment: Diffusion-well method, inhibition zones; assay type: cell-based, Staphylococcus aureus; details: 500 µg/mL, wells 10 mm
# Outline: as §1
compound,measurement,setting,value
"NC(=NN=Cc1ccccc1)c1cncc(Cl)n1.O.O=[N+]([O-])[O-].[Ag+] [Complex 1, AgL1NO3 × H2O]",Inhibition zone,B. subtilis ATCC 6633,17 mm
same,hypochromic effect,[1],0.84%
same,Inhibition zone,E. faecalis ATCC 29212,17 mm
same,MIC,[2],< 10 µg/mL
same,Inhibition zone,E. coli ATCC 10530,20 mm
same,Inhibition zone,[3],19 mm
same,IC50,glioblastoma U87 cells,8.15 ± 2.67 µM
same,IC50,[4],25.2 ± 3.75 µM
same,IC50,[5],20.5 ± 5.21 µM
same,Inhibition zone,S. aureus ATCC 6538,16 mm
same,Inhibition zone,S. aureus ATCC 25923,20 mm
